Biological target: T1, IRAK4 (Homo sapiens, UniProt Q9NWZ3)
T1 construct: His (N); TEV cleavage site (N)
T1 sequence (Q9NWZ3 1-460): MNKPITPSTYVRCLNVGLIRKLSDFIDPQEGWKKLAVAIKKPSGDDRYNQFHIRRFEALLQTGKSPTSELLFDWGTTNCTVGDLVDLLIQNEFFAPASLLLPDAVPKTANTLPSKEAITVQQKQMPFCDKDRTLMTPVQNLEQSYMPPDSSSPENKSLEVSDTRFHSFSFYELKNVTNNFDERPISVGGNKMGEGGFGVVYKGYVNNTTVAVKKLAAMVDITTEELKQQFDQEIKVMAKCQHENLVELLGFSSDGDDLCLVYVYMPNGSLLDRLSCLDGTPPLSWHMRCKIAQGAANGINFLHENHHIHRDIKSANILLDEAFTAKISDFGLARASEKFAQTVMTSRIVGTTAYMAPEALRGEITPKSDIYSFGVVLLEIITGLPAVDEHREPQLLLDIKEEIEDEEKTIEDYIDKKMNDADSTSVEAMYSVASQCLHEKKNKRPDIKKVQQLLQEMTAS
Assay: IRAK4 Enzymatic Assay
Format: biochemical
Details: His-TEV-IRAK4 20 ng/well, ATP 2 μM, STK1-biotin peptide 300 nM, 3 hours at 30° C., FlashPlate radioactivity
Protocol: IRAK4 is a human purified recombinant enzyme (His-TEV-IRAK1 (194-712)
IRAK4 hydrolyses ATP, autophosphorylates and phosphorylates a Serine/Threonine generic peptidic substrate (STK: 61ST1BLC from CisBio International based in Bagnols/Cèze FR).
Measurement of IRAK-4 inhibition is performed in streptavidin coated 384 well FlashPlate (PerkinElmer #SMP410A). His-TEV-IRAK4 (20 ng/well), ATP (2 μM, [^33P]ATP 0.25 μCi/well), STK1-biotin peptide (300 nM) and compounds in DMSO (range of concentrations from 20 μM to 1nM) or controls (2% DMSO) are incubated for 3 hours at 30° C. in assay buffer: Hepes pH7.0 50 mM, Fatty acid-free BSA 0.1%, Dithiothreitol DTT 2 mM, MgCl2 10 mM, EGTA 0.5 mM, Tween-20 0.01%, MnCl2 5 mM.
Kinase reaction is stopped by addition of EDTA. Supernatant is discarded, plates are washed three times with 150 mM NaCl and radioactivity is then measured in a Microbeta Trilux reader.

| Structure (SMILES) | IC50 [nM] |
| --- | --- |
| Cn1cc(-c2cccc(-c3ncc(-c4cnn([C@@H]5CCC[S@@+]([O-])C5)c4)cn3)c2)cn1 (racemic) [Example 235, 2-[3-(1-Methyl-1H-pyrazol-4-yl)-phenyl]-5-[1-(Trans-1-oxo-tetrahydro-thiopyran-3-yl)-1H-pyrazol-4-yl]-pyrimidine] | 100 to 1000 |
| Cn1cc(-c2cccc(-c3ncc(-c4cnn([C@H]5CCC[S@@+]([O-])C5)c4)cn3)c2)cn1 (racemic) [Example 236, 2-[3-(1-Methyl-1H-pyrazol-4-yl)-phenyl]-5-[1-(Cis-1-oxo-tetrahydro-thiopyran-3-yl)-1H-pyrazol-4-yl]-pyrimidine] | < 100 |
| CNC(=O)[C@H]1CCC[C@@H](n2cc(-c3cnc(-c4cccc(-c5cnn(C)c5)c4)nc3)cn2)C1 (relative stereo) [Example 180, cis-3-(4-{2-[3-(1-Methyl-1H-pyrazol-4-yl)-phenyl]-pyrimidin-5-yl}-pyrazol-1-yl)-cyclohexanecarboxylic acid methylamide] | 100 to 1000 |
| CNC(=O)[C@H]1CCC[C@H](n2cc(-c3cnc(-c4cccc(-c5cnn(C)c5)c4)nc3)cn2)C1 (relative stereo) [Example 181, trans-3-(4-{2-[3-(1-Methyl-1H-pyrazol-4-yl)-phenyl]-pyrimidin-5-yl}-pyrazol-1-yl)-cyclohexanecarboxylic acid methylamide] | 100 to 1000 |
| CO[C@H]1CN(C(=O)[C@H]2CC[C@H](n3cc(-c4cnc(-c5cccc(-c6cnn(C)c6)c5)nc4)cn3)CC2)C[C@@H]1O (relative stereo) [Example 245, (Trans-3-Hydroxy-4-methoxy-pyrrolidin-1-yl)-[4-Trans-(4-{2-[3-(1-methyl-1H-pyrazol-4-yl)-phenyl]-pyrimidin-5-yl}-pyrazol-1-yl)-cyclohexyl]-methanone] | < 100 |
| Cn1cc(-c2cccc(-c3ncc(-c4cnn([C@H]5CCC[C@@H](N6CCOC6=O)C5)c4)cn3)c2)cn1 (relative stereo) [Example 257, 3-[cis-3-(4-{2-[3-(1-Methyl-1H-pyrazol-4-yl)-phenyl]-pyrimidin-5-yl}-pyrazol-1-yl)-cyclohexyl]-oxazolidin-2-one] | < 100 |
| Cn1cc(-c2cccc(-c3ncc(-c4cnn([C@@H]5CCNC[C@@H]5F)c4)cn3)c2)cn1 (relative stereo) [Example 265] | 100 to 1000 |
| CC(=O)N1CC[C@H](n2cc(-c3cnc(-c4cccc(-c5cnn(C)c5)c4)nc3)cn2)[C@@H](O)C1 (single isomer, unassigned) [Example 202] | 100 to 1000 |

Other lines, results leading:

| IC50 [nM] | Structure (SMILES) |
| --- | --- |
| < 100 | CN(C)C(=O)C1CCC(n2cc(-c3cnc(-c4cccc(-c5cnn(C)c5)c4)nc3)cn2)CC1 (mixture of isomers) [Example 121, 4-(4-{2-[3-(1-Methyl-1H-pyrazol-4-yl)-phenyl]-pyrimidin-5-yl}-pyrazol-1-yl)-cyclohexanecarboxylic acid dimethylamide] |
| 100 to 1000 | CN(C)C(=O)C1CC2COCC(C1)C2n1cc(-c2cnc(-c3cccc(-c4cnn(C)c4)c3)nc2)cn1 (mixture of isomers) [Example 273, trans,cis-9-(4-{2-[3-(1-Methyl-1H-pyrazol-4-yl)-phenyl]-pyrimidin-5-yl}-pyrazol-1-yl)-3-oxa-bicyclo[3.3.1]nonane-7-carboxylic acid dimethylamide] |
| 100 to 1000 | CC(=O)N1CC[C@@H](n2cc(-c3cnc(-c4cccc(-c5cnn(C)c5)c4)nc3)cn2)[C@H](O)C1 (single isomer, unassigned) [Example 201] |
| 100 to 1000 | CC(=O)N1CC[C@@H](n2cc(-c3cnc(-c4cccc(-c5cnn(C)c5)c4)nc3)cn2)[C@H](O)C1 (single isomer, unassigned) [Example 226] |
| 100 to 1000 | Cc1cc(-c2cccc(-c3ncc(-c4cnn([C@H]5CCCS(=O)(=O)C5)c4)cn3)c2)cnn1 (single isomer, unassigned) [Example 240] |
| 100 to 1000 | Cc1cc(-c2cccc(-c3ncc(-c4cnn([C@@H]5CCCS(=O)(=O)C5)c4)cn3)c2)cnn1 (single isomer, unassigned) [Example 241] |
